# Experimental data from ChEMBL document CHEMBL1201862, “PubChem BioAssay data set” (2004).
#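 Protocol summary: plate cells (96-well), add compound at 5 concentrations, incubate 48 h, interpolate endpoints linearly. GI50 = concentration required for 50% inhibition of growth.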 Active and inactive are the calls of the source. No stated cut-off is given here; in the data, active = GI50 up to about 1.1 µM and inactive = higher.
# Columns and labels:
# Test in all cases: NCI tumour cell line growth inhibition, 48 h
# SK-MEL-5 = test system: SK-MEL-5
# HT-29 = test system: HT-29
# SF-295 = test system: SF-295
# NCI-H23 = test system: NCI-H23
# RPMI-8226 = test system: RPMI-8226
# OVCAR-8 = test system: OVCAR-8
# OVCAR-5 = test system: OVCAR-5
# UACC-62 = test system: UACC-62
# EKVX = test system: EKVX
# SNB-19 = test system: SNB-19
# SR = test system: SR
# A498 = test system: A498
# Malme-3M = test system: Malme-3M
# NCI-H522 = test system: NCI-H522
# UACC-257 = test system: UACC-257
# LOX IMVI = test system: LOX IMVI
# ACHN = test system: ACHN
# MCF7 = test system: MCF7
# Hs-578T = test system: Hs-578T
# BT-549 = test system: BT-549
Structure (SMILES),GI50 (SK-MEL-5),GI50 (HT-29),GI50 (SF-295),GI50 (NCI-H23),GI50 (RPMI-8226),GI50 (OVCAR-8),GI50 (OVCAR-5),GI50 (UACC-62),GI50 (EKVX),GI50 (SNB-19),GI50 (SR),GI50 (A498),GI50 (Malme-3M),GI50 (NCI-H522),GI50 (UACC-257),GI50 (LOX IMVI),GI50 (ACHN),GI50 (MCF7),GI50 (Hs-578T),GI50 (BT-549)
COC(=O)C1(C)NCCc2c1[nH]c1ccccc21 (stereo not drawn),> 100 µM (inactive),> 100 µM (inactive),> 100 µM (inactive),> 100 µM (inactive),> 100 µM (inactive),> 100 µM (inactive),> 100 µM (inactive),> 100 µM (inactive),> 100 µM (inactive),> 100 µM (inactive),> 100 µM (inactive),> 100 µM (inactive),> 100 µM (inactive),> 100 µM (inactive),,,,,,
C[S+]=c1sc2ccccc2s1,> 100 µM (inactive),> 100 µM (inactive),> 100 µM (inactive),,> 100 µM (inactive),> 100 µM (inactive),> 100 µM (inactive),> 100 µM (inactive),,> 100 µM (inactive),> 100 µM (inactive),> 100 µM (inactive),> 100 µM (inactive),> 100 µM (inactive),> 100 µM (inactive),> 100 µM (inactive),> 100 µM (inactive),,,
CCOC(=O)c1ccc(Nc2nc3ccc(C(F)(F)F)cc3nc2-c2ccccc2)cc1,> 100 µM (inactive),67.9 µM (inactive),56.8 µM (inactive),> 100 µM (inactive),> 100 µM (inactive),> 100 µM (inactive),> 100 µM (inactive),28.2 µM (inactive),> 100 µM (inactive),> 100 µM (inactive),> 100 µM (inactive),,> 100 µM (inactive),47.9 µM (inactive),> 100 µM (inactive),> 100 µM (inactive),> 100 µM (inactive),> 100 µM (inactive),60.5 µM (inactive),
C[n+]1c(-c2ccccc2)cc2/c(=C\c3ccccc3)c3ccccc3n21,0.667 µM (active),1.06 µM (active),4.93 µM (inactive),2.68 µM (inactive),,0.361 µM (active),3.4 µM (inactive),1.3 µM (inactive),1.93 µM (inactive),0.731 µM (active),,6.32 µM (inactive),1.14 µM (inactive),0.363 µM (active),0.991 µM (active),1.25 µM (inactive),3.13 µM (inactive),1.34 µM (inactive),0.116 µM (active),
COc1ccc(C(=O)C(C(=O)CC(=O)Nc2cccc(C(F)(F)F)c2)c2ccc(OC)cc2)cc1 (stereo not drawn),> 100 µM (inactive),> 100 µM (inactive),> 100 µM (inactive),> 100 µM (inactive),> 100 µM (inactive),> 100 µM (inactive),7.73 µM (inactive),> 100 µM (inactive),> 100 µM (inactive),> 100 µM (inactive),> 100 µM (inactive),> 100 µM (inactive),> 100 µM (inactive),> 100 µM (inactive),> 100 µM (inactive),,> 100 µM (inactive),,,
COC(=O)CCC(NC(=S)N/N=C(\C)c1cnccn1)C(=O)OC (stereo not drawn),34.2 µM (inactive),93.3 µM (inactive),52.4 µM (inactive),87.5 µM (inactive),44.9 µM (inactive),38.6 µM (inactive),21 µM (inactive),28.6 µM (inactive),40 µM (inactive),> 100 µM (inactive),29.2 µM (inactive),> 100 µM (inactive),54.1 µM (inactive),27 µM (inactive),33.8 µM (inactive),31.6 µM (inactive),29.8 µM (inactive),,,
COc1cc2c(cc1OCCCCN1C(=O)c3cccc4cccc(c34)C1=O)N=C[C@@H]1CCCN1C2=O,2.01 µM (inactive),5.73 µM (inactive),6.04 µM (inactive),3.74 µM (inactive),2.69 µM (inactive),3.11 µM (inactive),4.95 µM (inactive),3.47 µM (inactive),17.1 µM (inactive),6.17 µM (inactive),,7.66 µM (inactive),3.72 µM (inactive),1.68 µM (inactive),7.05 µM (inactive),3.83 µM (inactive),2.22 µM (inactive),1.69 µM (inactive),,3.52 µM (inactive)
Nc1cc(N2CCCC2)nc(=O)n1-c1ccccc1,> 100 µM (inactive),> 100 µM (inactive),> 100 µM (inactive),> 100 µM (inactive),> 100 µM (inactive),> 100 µM (inactive),> 100 µM (inactive),,> 100 µM (inactive),> 100 µM (inactive),> 100 µM (inactive),,> 100 µM (inactive),> 100 µM (inactive),> 100 µM (inactive),> 100 µM (inactive),> 100 µM (inactive),> 100 µM (inactive),,> 100 µM (inactive)
COc1ccc(CNC(=O)NCn2cc(-c3ccccc3)nn2)cc1,> 100 µM (inactive),> 100 µM (inactive),> 100 µM (inactive),> 100 µM (inactive),> 100 µM (inactive),> 100 µM (inactive),> 100 µM (inactive),,> 100 µM (inactive),> 100 µM (inactive),> 100 µM (inactive),,> 100 µM (inactive),> 100 µM (inactive),> 100 µM (inactive),> 100 µM (inactive),> 100 µM (inactive),> 100 µM (inactive),,> 100 µM (inactive)
C[n+]1c2ccccc2c(CNC(CS)C(=O)O)c2ccccc21 (stereo not drawn),> 10 µM (inactive),29.3 µM (inactive),24.2 µM (inactive),25.9 µM (inactive),16.9 µM (inactive),25.4 µM (inactive),44.5 µM (inactive),14.6 µM (inactive),19 µM (inactive),32.7 µM (inactive),12.7 µM (inactive),17.2 µM (inactive),37.8 µM (inactive),17.8 µM (inactive),38.5 µM (inactive),,27.2 µM (inactive),,,
Nc1cccc(C(=O)/C=C/c2ccccc2O)c1,> 100 µM (inactive),68.2 µM (inactive),> 100 µM (inactive),> 100 µM (inactive),16.2 µM (inactive),> 100 µM (inactive),> 100 µM (inactive),> 100 µM (inactive),> 100 µM (inactive),> 100 µM (inactive),44.7 µM (inactive),> 100 µM (inactive),> 100 µM (inactive),59.4 µM (inactive),> 100 µM (inactive),31.4 µM (inactive),> 100 µM (inactive),,,
Cc1ccc(S(=O)(=O)NC(=O)NCc2ccc(S(N)(=O)=O)cc2)cc1,> 100 µM (inactive),> 100 µM (inactive),> 100 µM (inactive),> 100 µM (inactive),> 100 µM (inactive),,> 100 µM (inactive),> 100 µM (inactive),> 100 µM (inactive),> 100 µM (inactive),> 100 µM (inactive),> 100 µM (inactive),> 100 µM (inactive),> 100 µM (inactive),,> 100 µM (inactive),> 100 µM (inactive),> 100 µM (inactive),> 100 µM (inactive),
[O-][S+](c1ccccc1)C1CC2CC3(CCC21O)OCCO3 (stereo not drawn),> 100 µM (inactive),> 100 µM (inactive),> 100 µM (inactive),> 100 µM (inactive),> 100 µM (inactive),> 100 µM (inactive),> 100 µM (inactive),> 100 µM (inactive),> 100 µM (inactive),> 100 µM (inactive),> 100 µM (inactive),> 100 µM (inactive),> 100 µM (inactive),> 100 µM (inactive),> 100 µM (inactive),> 100 µM (inactive),> 100 µM (inactive),> 100 µM (inactive),> 100 µM (inactive),
CC(=O)c1sc2[n+](c1C)C(=O)/C(=C\c1ccccc1Cl)S2,11.3 µM (inactive),20.6 µM (inactive),16 µM (inactive),19.3 µM (inactive),17.5 µM (inactive),24.3 µM (inactive),24.3 µM (inactive),13.1 µM (inactive),26.8 µM (inactive),20.3 µM (inactive),18.3 µM (inactive),29.7 µM (inactive),17.5 µM (inactive),18.2 µM (inactive),19.4 µM (inactive),18 µM (inactive),20.5 µM (inactive),16.1 µM (inactive),47.8 µM (inactive),
CCOc1cc(/C=N\N(C)C)cc(/C=N\N(C)C)c1O,22.1 µM (inactive),42.3 µM (inactive),41.3 µM (inactive),> 100 µM (inactive),31.6 µM (inactive),21.6 µM (inactive),48.2 µM (inactive),69 µM (inactive),71.6 µM (inactive),48.9 µM (inactive),38 µM (inactive),55.5 µM (inactive),32.4 µM (inactive),,36 µM (inactive),30.5 µM (inactive),21.5 µM (inactive),,29.7 µM (inactive),
CN1C(=O)C(=Cc2ccc(Br)cc2)C(=O)N(C)C1=O,> 100 µM (inactive),,> 100 µM (inactive),> 100 µM (inactive),> 100 µM (inactive),,> 100 µM (inactive),> 100 µM (inactive),> 100 µM (inactive),> 100 µM (inactive),,> 100 µM (inactive),,,> 100 µM (inactive),> 100 µM (inactive),> 100 µM (inactive),> 100 µM (inactive),,> 100 µM (inactive)
